# Assay results: ChEMBL document CHEMBL1134098, “Bioisosteric determinants for subtype selectivity of ligands for heteromeric GABA(A) receptors” (Bioorg Med Chem Lett, 2001)
# Assays:
# [1] = molecular target: T1, GABA A receptor alpha-4/beta-3/gamma-2 (Homo sapiens, UniProt P18507+P28472+P48169); assay: Effective agonist dose for human Gamma-aminobutyric acid A receptor alpha-4-beta-3-gamma-2; format: functional
# [2] = molecular target: GABA-A receptor; alpha-1/beta-3/gamma-2 (Homo sapiens) (UniProt P14867+P18507+P28472); assay: Maximal response relative to Gamma-aminobutyric acid A against human Gamma-aminobutyric-acid A receptor alpha-1-beta-3-gamma-2 expressed in Xenopus oocytes; format: functional, cell-based; conditions: Oocyte
# [3] = molecular target: T2, GABA-A receptor; alpha-3/beta-3/gamma-2 (Homo sapiens, UniProt P18507+P28472+P34903); assay: Agonist activity on human Gamma-aminobutyric acid A receptor alpha-3-beta-3-gamma-2 expressed in Xenopus oocytes; format: functional, cell-based, Oocyte
# T2 sequence (P18507 whole entry): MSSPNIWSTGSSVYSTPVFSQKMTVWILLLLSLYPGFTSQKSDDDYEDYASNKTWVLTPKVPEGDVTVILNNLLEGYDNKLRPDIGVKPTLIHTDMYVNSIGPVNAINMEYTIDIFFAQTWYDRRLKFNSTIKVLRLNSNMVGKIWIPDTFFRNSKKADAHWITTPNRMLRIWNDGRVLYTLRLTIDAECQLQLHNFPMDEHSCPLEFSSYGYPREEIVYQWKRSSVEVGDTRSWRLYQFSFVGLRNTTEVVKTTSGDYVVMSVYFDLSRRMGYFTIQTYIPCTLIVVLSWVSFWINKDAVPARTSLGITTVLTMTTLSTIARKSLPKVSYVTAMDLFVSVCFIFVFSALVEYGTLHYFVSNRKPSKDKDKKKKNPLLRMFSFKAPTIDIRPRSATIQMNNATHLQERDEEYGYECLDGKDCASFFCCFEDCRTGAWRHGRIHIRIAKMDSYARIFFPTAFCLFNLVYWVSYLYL
# T2 sequence (P28472 whole entry): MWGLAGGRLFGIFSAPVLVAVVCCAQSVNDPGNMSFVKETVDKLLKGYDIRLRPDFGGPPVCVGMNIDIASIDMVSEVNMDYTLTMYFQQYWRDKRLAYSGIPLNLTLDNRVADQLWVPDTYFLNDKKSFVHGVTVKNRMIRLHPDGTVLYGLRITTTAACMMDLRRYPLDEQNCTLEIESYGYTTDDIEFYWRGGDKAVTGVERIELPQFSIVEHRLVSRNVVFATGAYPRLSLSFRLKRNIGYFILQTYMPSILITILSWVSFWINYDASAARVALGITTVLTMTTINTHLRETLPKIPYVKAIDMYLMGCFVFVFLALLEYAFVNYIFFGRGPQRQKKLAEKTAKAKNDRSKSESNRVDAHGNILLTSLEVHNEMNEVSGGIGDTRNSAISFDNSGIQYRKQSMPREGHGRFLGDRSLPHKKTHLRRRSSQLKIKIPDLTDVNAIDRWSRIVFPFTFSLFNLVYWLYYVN
# T2 sequence (P34903 whole entry): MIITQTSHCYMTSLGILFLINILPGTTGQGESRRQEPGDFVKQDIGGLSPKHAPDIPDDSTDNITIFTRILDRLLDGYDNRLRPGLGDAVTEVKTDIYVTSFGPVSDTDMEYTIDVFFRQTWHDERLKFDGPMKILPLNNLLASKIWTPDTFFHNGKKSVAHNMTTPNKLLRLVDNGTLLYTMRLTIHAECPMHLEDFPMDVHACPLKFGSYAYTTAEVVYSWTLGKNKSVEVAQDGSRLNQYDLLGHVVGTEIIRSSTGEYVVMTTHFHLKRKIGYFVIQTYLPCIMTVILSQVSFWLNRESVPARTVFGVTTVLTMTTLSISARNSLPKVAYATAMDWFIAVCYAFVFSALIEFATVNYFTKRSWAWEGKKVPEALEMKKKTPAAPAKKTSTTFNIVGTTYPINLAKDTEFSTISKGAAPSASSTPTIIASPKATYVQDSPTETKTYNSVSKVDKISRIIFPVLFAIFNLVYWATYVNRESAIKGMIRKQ
# [4] = molecular target: GABA-A receptor; alpha-3/beta-3/gamma-2 (Homo sapiens) (UniProt P18507+P28472+P34903); assay: Maximal response relative to Gamma-aminobutyric acid A against human Gamma-aminobutyric-acid A receptor alpha-3-beta-3-gamma-2 expressed in Xenopus oocytes; format: functional, cell-based; conditions: Oocyte
# [5] = molecular target: T1, GABA A receptor alpha-4/beta-3/gamma-2; assay: Maximal response relative to Gamma-aminobutyric acid A against human Gamma-aminobutyric-acid A receptor alpha-4-beta-3-gamma-2 expressed in Xenopus oocytes; format: functional, cell-based; conditions: Oocyte
# [6] = molecular target: GABA-A receptor; alpha-5/beta-3/gamma-2 (Homo sapiens) (UniProt P18507+P28472+P31644); assay: Maximal response relative to Gamma-aminobutyric acid A against human Gamma-aminobutyric-acid A receptor alpha-5-beta-3-gamma-2 expressed in Xenopus oocytes; format: functional, cell-based; conditions: Oocyte
# [7] = molecular target: T3, GABA-A receptor; alpha-1/beta-3/gamma-2 (Homo sapiens, UniProt P14867+P18507+P28472); assay: Effective agonist dose for human Gamma-aminobutyric acid A receptor alpha-1-beta-3-gamma-2 expressed in Xenopus oocytes; format: functional, cell-based, Oocyte
# T3 sequence (P14867 whole entry): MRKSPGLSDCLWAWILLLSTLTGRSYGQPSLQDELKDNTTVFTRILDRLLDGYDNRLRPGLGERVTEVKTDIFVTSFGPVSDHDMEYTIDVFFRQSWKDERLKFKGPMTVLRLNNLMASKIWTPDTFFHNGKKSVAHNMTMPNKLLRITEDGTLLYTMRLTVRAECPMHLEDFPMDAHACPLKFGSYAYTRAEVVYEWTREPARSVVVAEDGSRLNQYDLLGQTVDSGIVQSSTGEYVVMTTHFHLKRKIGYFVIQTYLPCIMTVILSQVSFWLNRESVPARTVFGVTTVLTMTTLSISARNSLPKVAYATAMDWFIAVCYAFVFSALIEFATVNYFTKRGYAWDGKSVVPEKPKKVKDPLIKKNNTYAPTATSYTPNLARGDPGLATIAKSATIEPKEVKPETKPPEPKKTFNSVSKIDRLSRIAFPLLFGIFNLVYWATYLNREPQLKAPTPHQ
# T3 sequence (P18507 whole entry): T2 sequence (P18507 whole entry)
# T3 sequence (P28472 whole entry): T2 sequence (P28472 whole entry)
# [8] = molecular target: T4, GABA-A receptor; alpha-6/beta-3/gamma-2 (Homo sapiens, UniProt P18507+P28472+Q16445); assay: Maximal response relative to Gamma-aminobutyric acid A against human Gamma-aminobutyric-acid A receptor alpha-6-beta-3-gamma-2 expressed in Xenopus oocytes; format: functional, cell-based; conditions: Oocyte
# [9] = molecular target: T5, GABA-A receptor; alpha-2/beta-3/gamma-2 (Homo sapiens, UniProt P18507+P28472+P47869); assay: Agonist activity on human Gamma-aminobutyric acid A receptor alpha-2-beta-3-gamma-2 expressed in Xenopus oocytes; format: functional, cell-based, Oocyte
# T5 sequence (P18507 whole entry): T2 sequence (P18507 whole entry)
# T5 sequence (P28472 whole entry): T2 sequence (P28472 whole entry)
# T5 sequence (P47869 whole entry): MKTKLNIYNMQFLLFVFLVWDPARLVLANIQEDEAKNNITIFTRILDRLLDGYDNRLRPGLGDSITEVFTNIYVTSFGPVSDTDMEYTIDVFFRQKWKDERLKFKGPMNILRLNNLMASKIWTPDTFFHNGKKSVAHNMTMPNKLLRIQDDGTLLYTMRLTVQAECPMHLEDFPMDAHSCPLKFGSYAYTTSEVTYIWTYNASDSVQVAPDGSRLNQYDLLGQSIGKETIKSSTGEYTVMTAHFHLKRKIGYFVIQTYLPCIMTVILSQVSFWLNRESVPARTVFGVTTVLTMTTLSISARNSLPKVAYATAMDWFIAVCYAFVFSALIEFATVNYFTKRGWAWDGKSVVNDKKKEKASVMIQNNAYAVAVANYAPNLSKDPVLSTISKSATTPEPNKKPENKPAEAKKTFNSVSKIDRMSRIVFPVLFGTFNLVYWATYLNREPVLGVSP
# [10] = molecular target: T6, GABA-A receptor; alpha-5/beta-3/gamma-2 (Homo sapiens, UniProt P18507+P28472+P31644); assay: Effective agonist dose for human Gamma-aminobutyric acid A receptor alpha-5-beta-3-gamma-2 expressed in Xenopus oocytes; format: functional, cell-based, Oocyte
# T6 sequence (P18507 whole entry): T2 sequence (P18507 whole entry)
# T6 sequence (P28472 whole entry): T2 sequence (P28472 whole entry)
# T6 sequence (P31644 whole entry): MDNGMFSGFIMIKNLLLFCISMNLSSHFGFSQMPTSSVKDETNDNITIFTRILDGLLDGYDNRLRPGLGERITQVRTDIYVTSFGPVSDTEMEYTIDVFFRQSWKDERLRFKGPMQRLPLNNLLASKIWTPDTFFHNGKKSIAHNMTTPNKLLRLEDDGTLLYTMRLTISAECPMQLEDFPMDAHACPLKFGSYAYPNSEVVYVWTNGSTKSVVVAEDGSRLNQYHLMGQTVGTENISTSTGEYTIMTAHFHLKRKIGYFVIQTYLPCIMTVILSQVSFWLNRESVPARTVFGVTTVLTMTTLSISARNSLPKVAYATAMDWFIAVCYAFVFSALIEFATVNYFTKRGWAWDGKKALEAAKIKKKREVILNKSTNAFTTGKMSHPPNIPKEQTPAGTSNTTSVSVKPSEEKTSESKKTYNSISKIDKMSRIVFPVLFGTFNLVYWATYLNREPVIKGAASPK
# [11] = molecular target: GABA-A receptor; alpha-2/beta-3/gamma-2 (Homo sapiens) (UniProt P18507+P28472+P47869); assay: Maximal response relative to Gamma-aminobutyric acid A against human Gamma-aminobutyric-acid A receptor alpha-2-beta-3-gamma-2 expressed in Xenopus oocytes; format: functional, cell-based; conditions: Oocyte
# [12] = molecular target: T4, GABA-A receptor; alpha-6/beta-3/gamma-2; assay: Effective agonist dose for human Gamma-aminobutyric acid A receptor alpha-6-beta-3-gamma-2; format: functional
# [13] = molecular target: T1, GABA A receptor alpha-4/beta-3/gamma-2; assay: Antagonistic potency against human […] Gamma-aminobutyric acid A receptor alpha-4-beta-3-gamma-2; format: functional
# [14] = molecular target: T6, GABA-A receptor; alpha-5/beta-3/gamma-2; assay: Antagonistic potency against human Gamma-aminobutyric acid A receptor alpha-5-beta-3-gamma-2 expressed in Xenopus oocytes at 1 mM; format: functional, cell-based, Oocyte
# [15] = molecular target: T5, GABA-A receptor; alpha-2/beta-3/gamma-2; assay: Antagonistic potency against human Gamma-aminobutyric acid A receptor alpha-2-beta-3-gamma-2 expressed in Xenopus oocytes at 1 mM; format: functional, cell-based, Oocyte
# [16] = molecular target: T2, GABA-A receptor; alpha-3/beta-3/gamma-2; assay: Antagonistic potency against human Gamma-aminobutyric acid A receptor alpha-3-beta-3-gamma-2 expressed in Xenopus oocytes at 1 mM; format: functional, cell-based, Oocyte
# [17] = molecular target: T3, GABA-A receptor; alpha-1/beta-3/gamma-2; assay: Antagonistic potency against human Gamma-aminobutyric acid A receptor alpha-1-beta-3-gamma-2 expressed in Xenopus oocytes at 1 mM; format: functional, cell-based, Oocyte
# [18] = molecular target: T4, GABA-A receptor; alpha-6/beta-3/gamma-2; assay: Antagonistic potency against human Gamma-aminobutyric acid A receptor alpha-6-beta-3-gamma-2 expressed in Xenopus oocytes at 1 mM; format: functional, cell-based, Oocyte
# [19] = molecular target: T5, GABA-A receptor; alpha-2/beta-3/gamma-2; assay: Effective dose for agonist activity on human Gamma-aminobutyric acid A receptor alpha-2-beta-3-gamma-2 in Xenopus oocytes; format: functional, cell-based, Oocyte
# [20] = molecular target: T2, GABA-A receptor; alpha-3/beta-3/gamma-2; assay: Effective dose for agonist activity on activity on human Gamma-aminobutyric acid A receptor alpha-3-beta-3-gamma-2 expressed in Xenopus oocytes; format: functional, cell-based, Oocyte
# T4 sequence (Q16445 whole entry, one chain of several): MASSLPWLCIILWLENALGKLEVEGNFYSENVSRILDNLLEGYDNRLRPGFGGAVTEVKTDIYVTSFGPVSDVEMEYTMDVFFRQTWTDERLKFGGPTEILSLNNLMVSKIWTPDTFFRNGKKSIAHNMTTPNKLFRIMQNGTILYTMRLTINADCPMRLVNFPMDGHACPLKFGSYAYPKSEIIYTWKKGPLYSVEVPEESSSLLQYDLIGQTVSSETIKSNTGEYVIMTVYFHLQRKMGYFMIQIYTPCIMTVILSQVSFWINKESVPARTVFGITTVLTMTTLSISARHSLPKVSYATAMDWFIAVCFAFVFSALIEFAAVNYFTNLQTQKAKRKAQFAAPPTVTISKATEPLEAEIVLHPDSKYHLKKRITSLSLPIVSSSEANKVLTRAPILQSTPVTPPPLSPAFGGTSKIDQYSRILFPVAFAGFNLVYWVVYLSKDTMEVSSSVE
# T1 sequence (P48169 whole entry, one chain of several): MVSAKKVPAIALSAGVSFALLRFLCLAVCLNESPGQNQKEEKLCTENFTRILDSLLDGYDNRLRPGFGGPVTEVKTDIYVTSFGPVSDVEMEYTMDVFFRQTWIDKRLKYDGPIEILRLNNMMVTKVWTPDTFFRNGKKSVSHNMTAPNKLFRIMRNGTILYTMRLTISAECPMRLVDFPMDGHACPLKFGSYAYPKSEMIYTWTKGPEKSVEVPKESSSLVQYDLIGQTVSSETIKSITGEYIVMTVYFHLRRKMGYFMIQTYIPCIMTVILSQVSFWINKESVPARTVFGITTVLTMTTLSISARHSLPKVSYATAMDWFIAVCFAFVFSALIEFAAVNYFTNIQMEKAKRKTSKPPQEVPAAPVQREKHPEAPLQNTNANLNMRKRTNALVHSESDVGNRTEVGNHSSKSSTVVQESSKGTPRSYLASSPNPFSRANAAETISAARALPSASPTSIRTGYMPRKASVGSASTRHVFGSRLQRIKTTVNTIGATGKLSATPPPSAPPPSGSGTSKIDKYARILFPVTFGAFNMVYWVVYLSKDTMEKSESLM
SMILES,EC50 [1],Max [2],EC50 [3],Max [4],Max [5],Max [6],EC50 [7],Max [8],EC50 [9],EC50 [10],Max [11],EC50 [12],Ki [13],Ki [14],Ki [15],Ki [16],Ki [17],Ki [18],EC50 [19],EC50 [20]
O=C(O)Cc1c[nH]cn1 [IMIDAZOLE ACETIC ACID],340 µM,24,300 µM,54,27,56,310 µM,25,600 µM,420 µM,72,460 µM,,,,,,,,
NCCC[Se](=O)O,2100 µM,30,4900 µM,33,16,58,1400 µM,51,1500 µM,1900 µM,47,3000 µM,,,,,,,,
O=C(O)C1=CCNCC1 [ISOGUVACINE],180 µM,88,55 µM,69,88,94,160 µM,98,50 µM,75 µM,88,20 µM,,,,,,,,
O=[PH](O)C1(O)CCNCC1,,,,,,,,,,,,,2100 µM,1900 µM,1500 µM,4900 µM,1400 µM,3000 µM,,
NCCCC(=O)O,,100,,100,100,100,,100,,,100,,,,,,,,,
O=[PH](O)C1CCNCC1,140 µM,5,160 µM,29,0,17,270 µM,35,280 µM,260 µM,17,140 µM,,,,,,,,
O=[Se](O)C1CCNCC1,160 µM,3,180 µM,28,0,3,200 µM,13,,420 µM,2,240 µM,,,,,,,170 µM,
O=S(=O)(O)C1CCNCC1,200 µM,21,65 µM,75,7.2,92,40 µM,15,26 µM,20 µM,96,20 µM,,,,,,,,
CP(=O)(O)C1CCNCC1,,,,,,,,,,,,,340 µM,420 µM,600 µM,300 µM,310 µM,460 µM,,
O=P(O)(O)C1CCNCC1,,,,,,,,,,,,,3100 µM,2800 µM,2100 µM,3800 µM,3300 µM,4800 µM,,
O=C(O)C1CCNCC1 [ISONIPECOTIC ACID],300 µM,46,,46,104,57,620 µM,83,420 µM,690 µM,53,160 µM,,,,,,,,370 µM
